Like-named read-outs stand apart in the source and are kept apart here. Peptide text beside a SMILES is read from it.
Tests used:
Human heart tissue = assay: Inhibition of 125I-Tyr-Ala-HEXARELIN binding to human heart tissue membranes; conditions: for percent of inhibition of 125I-Tyr-Ala-HEXARELIN specifically bound / specific binding of 125I-Tyr-Ala-HEXARELIN/0.1 mg membrane protein: heart; for IC50: human heart tissue
Description: (§1) The peptides of Examples 3 and 6 were further studied for inhibition of ^125 I--Tyr--Ala--HEXARELIN binding to human tissue. HEXARELIN is His--D--Mrp--Ala--Trp--D--Phe--Lys--NH2 where Mrp is 2-methyltryptophan.
(§2) Tissue membranes (0.1 mg protein) obtained from the heart and hypothalamus of two different adult subjects were incubated in triplicate with a subsaturating concentration (34 pM, about 48,000 cpm, for heart tissue and 42 pM, about 60,000 cpm, for hypothalamus tissue) of ^125 I--Tyr--Ala--HEXARELIN for 40 min at 0° C. in the absence and in the presence of increasing concentrations of the indicated unlabelled peptides. The value in parentheses represents the percent of inhibition of ^125 1I--Tyr--Ala--HEXARELIN specifically bound.
(§3) The specific binding of ^125 I--Tyr--Ala--HEXARELIN/0.1 mg membrane protein is expressed as a percent of total radioactivity added.

[1] = target: Human hypothalamus tissue; assay: Inhibition of 125I-Tyr-Ala-HEXARELIN binding to human hypothalamus tissue membranes; conditions: for IC50: human hypothalamus tissue; for percent of inhibition of 125I-Tyr-Ala-HEXARELIN specifically bound / specific binding of 125I-Tyr-Ala-HEXARELIN/0.1 mg membrane protein: hypothalamus
Description: as §1, §2, §3

[2] = mean of subjects 1 and 2, read-out: mean IC50 value
[3] = subject 1, read-out: IC50 value
[4] = subject 2, read-out: IC50 value

Q: How did the “percent of inhibition of 125I-Tyr-Ala-HEXARELIN specifically bound” value (Human heart tissue; 0.1 nM peptide, subject 1) turn out when `Cc1[nH]c2ccccc2c1C[C@@H](NC(=O)[C@@H](N)Cc1cnc[nH]1)C(=O)N[C@@H](C)C(=O)N[C@@H](Cc1c[nH]c2ccccc12)C(=O)N[C@H](Cc1ccccc1)C(=O)N[C@@H](CCCCN)C(N)=O` [HEXARELIN, His--D--Mrp--Ala--Trp--D--Phe--Lys--NH2] (HELM PEPTIDE1{H.[Cc1[nH]c2ccccc2c1C[C@@H](N[*:1])C(=O)[*:2]].A.W.[dF].K.[am]}$$$$V2.0) was run?
A: 4%

Q: And the “specific binding of 125I-Tyr-Ala-HEXARELIN/0.1 mg membrane protein” value (shortened to “specific binding”) (Human heart tissue; 0.1 nM peptide, subject 1)?
A: 20.1% of total radioactivity

Q: What about the “percent of inhibition of 125I-Tyr-Ala-HEXARELIN specifically bound” value (Human heart tissue; 0.1 nM peptide, subject 2) of the same molecule?
A: 5%

Q: What about the “specific binding” value (Human heart tissue; 0.1 nM peptide, subject 2) of the same molecule?
A: 22.8% of total radioactivity

Q: What about the “percent of inhibition of 125I-Tyr-Ala-HEXARELIN specifically bound” value (Human heart tissue; 1 nM peptide, subject 1) of the same molecule?
A: 20%

Q: What about the “specific binding” value (Human heart tissue; 1 nM peptide, subject 1) of the same molecule?
A: 16.9% of total radioactivity

Q: What about the “percent of inhibition of 125I-Tyr-Ala-HEXARELIN specifically bound” value (Human heart tissue; 1 nM peptide, subject 2) of the same molecule?
A: 28%

Q: And the “specific binding” value (Human heart tissue; 1 nM peptide, subject 2)?
A: 17.3% of total radioactivity

Q: And the “percent of inhibition of 125I-Tyr-Ala-HEXARELIN specifically bound” value (Human heart tissue; 10 nM peptide, subject 1)?
A: 51%

Q: What about the “specific binding” value (Human heart tissue; 10 nM peptide, subject 1) of the same molecule?
A: 10.4% of total radioactivity

Q: And the “percent of inhibition of 125I-Tyr-Ala-HEXARELIN specifically bound” value (Human heart tissue; 10 nM peptide, subject 2)?
A: 56%

Q: What about the “specific binding” value (Human heart tissue; 10 nM peptide, subject 2) of the same molecule?
A: 10.5% of total radioactivity

Q: What about the “percent of inhibition of 125I-Tyr-Ala-HEXARELIN specifically bound” value (Human heart tissue; 100 nM peptide, subject 1) of the same molecule?
A: 92%

Q: And the “specific binding” value (Human heart tissue; 100 nM peptide, subject 1)?
A: 1.7% of total radioactivity

Q: And the “percent of inhibition of 125I-Tyr-Ala-HEXARELIN specifically bound” value (Human heart tissue; 100 nM peptide, subject 2)?
A: 90%

Q: What about the “specific binding” value (Human heart tissue; 100 nM peptide, subject 2) of the same molecule?
A: 2.4% of total radioactivity

Q: What about the “percent of inhibition of 125I-Tyr-Ala-HEXARELIN specifically bound” value (Human heart tissue; 1000 nM peptide, subject 1) of the same molecule?
A: 100%

Q: What about the “specific binding” value (Human heart tissue; 1000 nM peptide, subject 1) of the same molecule?
A: 0% of total radioactivity

Q: What about the “percent of inhibition of 125I-Tyr-Ala-HEXARELIN specifically bound” value (Human heart tissue; 1000 nM peptide, subject 2) of the same molecule?
A: 100%

Q: What about the “specific binding” value (Human heart tissue; 1000 nM peptide, subject 2) of the same molecule?
A: 0% of total radioactivity

Q: What about the IC50 (Human heart tissue; [2]) of the same molecule?
A: 9.5 nM

Q: And the IC50 (Human heart tissue; [3])?
A: 10.6 nM

Q: What about the IC50 (Human heart tissue; [4]) of the same molecule?
A: 8.3 nM

Q: What about the IC50 [1, 2] of the same molecule?
A: 7 nM

Q: What about the IC50 [1, 3] of the same molecule?
A: 8.9 nM

Q: What about the IC50 [1, 4] of the same molecule?
A: 5 nM

Q: What about the “percent of inhibition of 125I-Tyr-Ala-HEXARELIN specifically bound” value ([1]; 0.1 nM peptide, subject 1) of the same molecule?
A: 3%

Q: And the “specific binding” value ([1]; 0.1 nM peptide, subject 1)?
A: 10.7% of total radioactivity

Q: And the “percent of inhibition of 125I-Tyr-Ala-HEXARELIN specifically bound” value ([1]; 0.1 nM peptide, subject 2)?
A: 4%

Q: What about the “specific binding” value ([1]; 0.1 nM peptide, subject 2) of the same molecule?
A: 9.1% of total radioactivity

Q: And the “percent of inhibition of 125I-Tyr-Ala-HEXARELIN specifically bound” value ([1]; 1 nM peptide, subject 1)?
A: 16%

Q: And the “specific binding” value ([1]; 1 nM peptide, subject 1)?
A: 9.6% of total radioactivity

Q: And the “percent of inhibition of 125I-Tyr-Ala-HEXARELIN specifically bound” value ([1]; 1 nM peptide, subject 2)?
A: 19%

Q: And the “specific binding” value ([1]; 1 nM peptide, subject 2)?
A: 7.7% of total radioactivity

Q: And the “percent of inhibition of 125I-Tyr-Ala-HEXARELIN specifically bound” value ([1]; 10 nM peptide, subject 1)?
A: 51%

Q: What about the “specific binding” value ([1]; 10 nM peptide, subject 1) of the same molecule?
A: 5.2% of total radioactivity

Q: What about the “percent of inhibition of 125I-Tyr-Ala-HEXARELIN specifically bound” value ([1]; 10 nM peptide, subject 2) of the same molecule?
A: 67%

Q: And the “specific binding” value ([1]; 10 nM peptide, subject 2)?
A: 3.1% of total radioactivity

Q: What about the “percent of inhibition of 125I-Tyr-Ala-HEXARELIN specifically bound” value ([1]; 100 nM peptide, subject 1) of the same molecule?
A: 89%

Q: And the “specific binding” value ([1]; 100 nM peptide, subject 1)?
A: 1.2% of total radioactivity

Q: What about the “percent of inhibition of 125I-Tyr-Ala-HEXARELIN specifically bound” value ([1]; 100 nM peptide, subject 2) of the same molecule?
A: 93%

Q: And the “specific binding” value ([1]; 100 nM peptide, subject 2)?
A: 0.7% of total radioactivity

Q: What about the “percent of inhibition of 125I-Tyr-Ala-HEXARELIN specifically bound” value ([1]; 1000 nM peptide, subject 1) of the same molecule?
A: 100%

Q: What about the “specific binding” value ([1]; 1000 nM peptide, subject 1) of the same molecule?
A: 0% of total radioactivity

Q: And the “percent of inhibition of 125I-Tyr-Ala-HEXARELIN specifically bound” value ([1]; 1000 nM peptide, subject 2)?
A: 100%

Q: And the “specific binding” value ([1]; 1000 nM peptide, subject 2)?
A: 0% of total radioactivity
